These are literature values, as cited in patent US20160066563A1, “COMPOSITIONS AND METHODS FOR COLLECTING, WASHING, CRYOPRESERVING, RECOVERING AND RETURN OF LIPOASPIRATES TO PHYSICIAN FOR AUTOLOGOUS ADIPOSE TRANSFER PROCEDURES” (priority 2012, published 2016).

Structures are written as SMILES.

In the data set the test system is cells. Conditions: at room temperature or body temperature.

On to `OCC(O)CO` [glycerol], for which the toxicity to cells result was “not toxic”.

For the compound `C[S+](C)[O-]` [DMSO, dimethylsulfoxide], the toxicity to cells entry was “toxic to cells”.
